Reference: patent publication US20230324368A1, “Systems, Devices And Methods For Cell Analysis Using ChemFET Sensor Arrays” (Life Technologies Corporation, priority 2020, published 2023)

Legend:
HEPG2 cells [1] = experiment: Label-free metabolic profiling (glucose restriction / glucose reintroduction) on ChemFET sensor array, HEPG2 cells; type: cell-based, human
Excerpt: FIG. 18A through FIG. 18B are graphs of data collected during metabolic profiling studies using HEPG2 cells (ATCC-HB-8065), while FIG. 19A and FIG. 19B are graphs of data collected during metabolic profiling studies using A673 cells (ECACC 85111504). FIG. 18A through FIG. 18B are temporal response graphs of counts equivalent to protons (CEP) in microvolts (μV) versus time. As will be described in more detail herein, the pharmacological dissection of metabolic profiling can be performed to understand the contribution of oxidative metabolism and glycolytic metabolism to metabolic profiling. Accordingly, chemical agents, such as oligomycin, antimycin A, rotenone and metformin can used to understand a contribution of oxidative metabolism to cellular response in a metabolic profiling study, while chemical agents, such as 2-deoxy-D-glucose, koningic acid, fasentin, and AM2394 can used to understand a contribution of glycolytic metabolism to cellular response in a metabolic profiling study.
The chip devices used in the studies were ISFET chip devices selective for sensing hydrogen ions, and were chip devices such as chip device 1 of 1 of Table 1. Given that the analyses performed were for metabolic profiling, chip devices with microwells were selected as depicted for chip device 500B of FIG. 5C. […]
(§1) Prior to seeding the devices with cells, each chip device in open format, such as open format chip device 500 of FIG. 2, and were soaked for 30 minutes with 70% ethanol in water, then rinsed with PBS and then rinsed twice with 1.5 mL of a cell culture medium, for example, Dulbecco's Modified […] Medium (DMEM; Gibco™ catalog #11995-065), Minimal Essential Medium (MEM; Gibco™ catalog #11095-080) or McCoy's 5A modified medium (Gibco™ catalog #12330-031). […] After rinsing with the cell culture medium, the devices were ready for addition to each device of a suspension of cells at a density between 5,000 to 30,000 cells in 1 to 1.5 mL of a cell culture medium, pH 7.4. […]

HEPG2 cells [2] = details: FCCP 100 μM; ISFET chip device 2 with microwells; not all cells showed efflux
Protocol: A sensor array device of the present disclosure, such as sensor array device 500 of FIG. 2, has an open structure, thereby allowing the HEPG2 cells to be cultured on the sensor surface in ^˜1 mL of cell culture media. The device was sterilized with 70% Ethanol in water, rinsed and prepared with 100 μg/mL poly-D-lysine in phosphate buffered saline prior to adding cells to facilitate cell adhesion to a chip device surface as depicted in FIG. 5B.
For plating on the sensor array device, the HEPG2 cells were harvested from culture, resuspended at 2.5×10^5 cells per mL in complete cell culture medium (composed of Minimum Essential Medium, MEM, Thermo Fisher Scientific catalog number 11095080) plus 10% Fetal Calf Serum (FCS, Thermo Fisher Scientific Catalog number A3160401) and plated onto the sensor array device for overnight incubation in a cell culture incubator under standard conditions at 37° C. with 95% humidity and 5% carbon dioxide in room air atmosphere. […] Cells were then allowed to adhere to the prepared surface of the sensor array device and grow overnight or longer before microscopic analysis of morphology and qualitative assessment of viability. […]

HEPG2 cells [3] = experiment: Control microscopy with calcein acetoxymethyl (AM) ester live-cell indicator, HEPG2 cells; type: cell-based, human; details: 5 μM koningic acid treated cells, after experiment of FIG. 18B
Protocol: (§2) After completion of each experiment represented by FIG. 18A and FIG. 18B for the HEPG2 cells, and by FIG. 19A and FIG. 19B for the A673 cells, control microscopy studies using calcein acetoxymethyl (AM) ester, a known fluorescent indicator of live cells, were performed. […] These control microscopy studies confirmed that what was observed using the ChemFET-based cell analysis system to perform the studies represented by FIG. 18A through FIG. 19B for both HEPG2 and A673 cells were observed using live cells.

A673 cells [4] = experiment: Label-free metabolic profiling (glucose restriction / glucose reintroduction) on ChemFET sensor array, A673 cells; type: cell-based; details: 5 μM koningic acid pretreatment during glucose restriction; 5 mM glucose reintroduction; FIG. 19A/19B
Excerpt: FIG. 18A through FIG. 18B are graphs of data collected during metabolic profiling studies using HEPG2 cells (ATCC-HB-8065), while FIG. 19A and FIG. 19B are graphs of data collected during metabolic profiling studies using A673 cells (ECACC 85111504). FIG. 18A through FIG. 18B are temporal response graphs of counts equivalent to protons (CEP) in microvolts (μV) versus time. As will be described in more detail herein, the pharmacological dissection of metabolic profiling can be performed to understand the contribution of oxidative metabolism and glycolytic metabolism to metabolic profiling. […]
as §1

A673 cells [5] = experiment: Control microscopy with calcein acetoxymethyl (AM) ester live-cell indicator, A673 cells; type: cell-based; details: 5 μM koningic acid treated cells, after experiment of FIG. 19B
Protocol: as §2

O=CC[C@@H](O)[C@H](O)[C@H](O)CO [2-deoxy-D-glucose]
averaged temporal response, counts equivalent to protons (CEP) versus time (HEPG2 cells [1]; 50 mM 2-deoxy-D-glucose introduced at 371 seconds after oligomycin, control without koningic acid, FIG. 18A): attenuated

N#CC(C#N)=NNc1ccc(OC(F)(F)F)cc1 [FCCP, carbonyl cyanide-4-(trifluoromethoxy) phenylhydrazone]
cellular response observed in electroscopic image (HEPG2 cells [2]): efflux of cellular contents

CC(C)[C@H]1CC[C@@]2(CO2)[C@H]2C(=O)OCC(C(=O)O)=C[C@H]12 [koningic acid]
acute toxicity, calcein staining profile versus control vehicle treated cultures (HEPG2 cells [3]): no acute toxicity | averaged temporal response (CEP) to glucose reintroduction with and without koningic acid (A673 cells [4]): comparable to the results using HEPG2 cells | averaged temporal response, counts equivalent to protons (CEP) versus time (HEPG2 cells [1]; 5 μM koningic acid pretreatment during glucose restriction, two to three hours, then glucose, oligomycin, 2-deoxy-D-glucose, FIG. 18B): no change in the averaged signal | acute toxicity, calcein staining profile versus control vehicle treated cultures (A673 cells [5]): no acute toxicity

CC[C@H]1/C=C/C=C/C[C@@H](C)[C@H](O)[C@@](C)(O)C(=O)[C@@H](C)[C@H](O)[C@@H](C)C(=O)[C@@H](C)[C@H](O)[C@@H](C)/C=C/C(=O)O[C@@H]2[C@H](C)[C@H](CC1)O[C@]1(CC[C@H](C)[C@H](C[C@@H](C)O)O1)[C@H]2C [oligomycin]
averaged temporal response, counts equivalent to protons (CEP) versus time (HEPG2 cells [1]; 1 μM oligomycin introduced at 295 seconds after glucose, control without koningic acid, FIG. 18A): potentiated
